How the values were obtained:
[1] = system: Ba/F3 CD74-ROS1 non mutant; experiment: Antiproliferation assay (Alamar Blue, 72 h); assay type: cell-based, mouse; settings: Mus musculus, BaF3, 72 h, Ba/F3 cells, cell growth inhibition
Description: (§1) To assess targeted degradation of ROS1 fusion proteins, we first established a mouse pro-B cell line Ba/F3 as a model expressing the CD74-ROS1 oncogene or CD74-ROS1 with clinically observed secondary/tertiary mutations. The Ba/F3 cell line is dependent on interleukin-3 for survival and proliferation. Upon transduction of oncogenic ROS1, Ba/F3 cells become independent of interleukin-3 but dependent on the transduced driver gene.
(§2) Ba/F3 immortalized murine bone marrow–derived pro-B cells were obtained from Creative Biogene (Shirley, NY) and cultured in RPMI supplemented with 10% FBS and IL3 (0.5 ng/mL). Ba/F3 cells expressing ROS1 variants were maintained in RPMI supplemented with 10% FBS and puromycin (0.7 mg/mL). […] Each compound was dissolved in DMSO and serially diluted in RPMI for cell culture experiments.
(§3) To assess the 72 h effect of drug treatment on cell proliferation, 2000 to 3000 cells were plated in replicates of three in 96-well plates. The plates were placed in an incubator at 37 °C, 5% CO2 for 72 h. Following drug treatments, the cells were incubated with the Alamar Blue Assay reagent (BioRad), 5 μL each well for 4 h at 37 °C and 5% CO2. Luminescence was measured on a multiplate reader and analyzed. […] IC50 values were determined using a nonlinear regression model with a sigmoidal dose response in GraphPad. The data were collected based on triplicate experiments, and presented as mean ± SD.
(§4) The resulting virus was used to infect Ba/F3 cells. After retroviral infection, Ba/F3 cells were selected by incubation with puromycin (0.7 mg/mL) for 2 weeks. For Ba/F3 cells infected by the CD74–ROS1 variants, IL3 was withdrawn from the culture medium at least 2 weeks before the experiments.

Ba/F3 ROS1-G2032R = experiment: Antiproliferation assay; assay type: cell-based, mouse; settings: Mus musculus, BaF3; Ba/F3 cells, cell growth inhibition, 72 h
Description: as §1, §2, §3, §4

ROS1 = ROS1 degradation in Ba/F3 cells (WES immunoblotting); assay type: cell-based; settings: for DC50: concentration needed to reduce ROS1 protein by 50%, Ba/F3 cells; for Dmax (%) (ROS1): maximal degradation of ROS1 in Ba/F3 cells
Procedure: Protein levels were analyzed using a WES instrument according to the WES User Guide from ProteinSimple in duplicate experiments. The samples were mixed with the fluorescent 5 master mix (ProteinSimple) and then heated at 95 °C for 5 min. Boiled samples, biotinylated protein ladder, antibody diluent, Streptavidin-HRP, primary antibodies, ProteinSimple horseradish peroxidase conjugated antirabbit or antimouse secondary antibodies, luminol-peroxide, and wash buffer were loaded into the WES plate (Wes 12–230 kDa Prefilled Plates with Split Buffer, ProteinSimple). The plates and capillary cartridges were loaded into the WES instrument, and protein separation, antibody incubation, and imaging were performed according to manufacturer’s instructions. Compass software (ProteinSimple) was used to acquire the data and to generate the virtual blot image reconstruction and chemiluminescence signal intensity electropherograms. […] Protein levels are expressed as the AUC of the peak chemiluminescence intensity. Antibodies against phospho-ROS1(Tyr2274/2334) (E8F5J), ROS1 (D4D6(R)) were obtained from Cell Signaling Technology.

| Compound | IC50 [1] | IC50 (Ba/F3 ROS1-G2032R) | DC50 (ROS1) | Dmax (%) (ROS1) (ROS1) |
| --- | --- | --- | --- | --- |
| Cc1cc(Nc2ncc(Cl)c(Nc3ccccc3S(=O)(=O)C(C)C)n2)c(OC(C)C)cc1C1CCN(C2CCN(CCNc3cccc4c3C(=O)N(C3CCC(=O)NC3=O)C4=O)CC2)CC1 (stereo not drawn) [8d, 4-((2-(4-(4-((5-Chloro-4-((2-(isopropylsulfonyl)phenyl)amino)pyrimidin-2-yl)amino)-5-isopropoxy-2-methylphenyl)-[1,4′-bipiperidin]-1′-yl)ethyl)amino)-2-(2,6-dioxopiperidin-3-yl)isoindoline-1,3-dione] | 183 ± 41 nM | 2560 ± 242 nM | 302 nM | 66% |
| Cc1cc(Nc2ncc(Cl)c(Nc3ccccc3S(=O)(=O)C(C)C)n2)c(OC(C)C)cc1C1CCN(C2CCN(CCCNc3cccc4c3C(=O)N(C3CCC(=O)NC3=O)C4=O)CC2)CC1 (stereo not drawn) [8e, 4-((3-(4-(4-((5-Chloro-4-((2-(isopropylsulfonyl)phenyl)amino)pyrimidin-2-yl)amino)-5-isopropoxy-2-methylphenyl)-[1,4′-bipiperidin]-1′-yl)propyl)amino)-2-(2,6-dioxopiperidin-3-yl)isoindoline-1,3-dione] | 562 ± 61 nM | > 10000 nM | 733 nM | 28% |
| Cc1cc(Nc2ncc(Cl)c(Nc3ccccc3S(=O)(=O)C(C)C)n2)c(OC(C)C)cc1C1CCN(C2CCN(C3CN(c4cccc5c4C(=O)N(C4CCC(=O)NC4=O)C5=O)C3)CC2)CC1 (stereo not drawn) [8f, 4-(3-(4-(4-((5-Chloro-4-((2-(isopropylsulfonyl)phenyl)amino)pyrimidin-2-yl)amino)-5-isopropoxy-2-methylphenyl)-[1,4′-bipiperidin]-1′-yl)azetidin-1-yl)-2-(2,6-dioxopiperidin-3-yl)isoindoline-1,3-dione] | 115 ± 22 nM | 3660 ± 299 nM | 189 nM | 67% |
| Cc1cc(Nc2ncc(Cl)c(Nc3ccccc3S(=O)(=O)C(C)C)n2)c(OC(C)C)cc1C1CCN(C2CCN(CC3CN(c4cccc5c4C(=O)N(C4CCC(=O)NC4=O)C5=O)C3)CC2)CC1 (stereo not drawn) [8g, 4-(3-((4-(4-((5-Chloro-4-((2-(isopropylsulfonyl)phenyl)amino)pyrimidin-2-yl)amino)-5-isopropoxy-2-methylphenyl)-[1,4′-bipiperidin]-1′-yl)methyl)azetidin-1-yl)-2-(2,6-dioxopiperidin-3-yl)isoindoline-1,3-dione] | 191 ± 60 nM | 950 ± 67 nM | 155 nM | 77% |
| Cc1cc(Nc2ncc(Cl)c(Nc3ccccc3S(=O)(=O)C(C)C)n2)c(OC(C)C)cc1C1CCN(CCNc2ccc3c(c2)C(=O)N(C2CCC(=O)NC2=O)C3=O)CC1 (stereo not drawn) [8h, 5-((2-(4-(4-((5-Chloro-4-((2-(isopropylsulfonyl)phenyl)amino)pyrimidin-2-yl)amino)-5-isopropoxy-2-methylphenyl)piperidin-1-yl)ethyl)amino)-2-(2,6-dioxopiperidin-3-yl)isoindoline-1,3-dione] | 128 ± 39 nM | 6630 ± 1800 nM | 145 nM | 71% |
| Cc1cc(Nc2ncc(Cl)c(Nc3ccccc3S(=O)(=O)C(C)C)n2)c(OC(C)C)cc1C1CCN(CCCNc2ccc3c(c2)C(=O)N(C2CCC(=O)NC2=O)C3=O)CC1 (stereo not drawn) [8i, 5-((3-(4-(4-((5-Chloro-4-((2-(isopropylsulfonyl)phenyl)amino)pyrimidin-2-yl)amino)-5-isopropoxy-2-methylphenyl)piperidin-1-yl)propyl)amino)-2-(2,6-dioxopiperidin-3-yl)isoindoline-1,3-dione] | 93 ± 50 nM | 4710 ± 486 nM | 88 nM | 84% |
| Cc1cc(Nc2ncc(Cl)c(Nc3ccccc3S(=O)(=O)C(C)C)n2)c(OC(C)C)cc1C1CCN(C2CCN(c3ccc4c(c3)C(=O)N(C3CCC(=O)NC3=O)C4=O)CC2)CC1 (stereo not drawn) [8j, 5-(4-(4-((5-Chloro-4-((2-(isopropylsulfonyl)phenyl)amino)pyrimidin-2-yl)amino)-5-isopropoxy-2-methylphenyl)-[1,4′-bipiperidin]-1′-yl)-2-(2,6-dioxopiperidin-3-yl)isoindoline-1,3-dione] | 39 ± 8 nM | 1530 ± 521 nM | 41 nM | 88% |
| Cc1cc(Nc2ncc(Cl)c(Nc3ccccc3S(=O)(=O)C(C)C)n2)c(OC(C)C)cc1C1CCN(C2CCN(CCNc3ccc4c(c3)C(=O)N(C3CCC(=O)NC3=O)C4=O)CC2)CC1 (stereo not drawn) [8k, 5-((2-(4-(4-((5-Chloro-4-((2-(isopropylsulfonyl)phenyl)amino)pyrimidin-2-yl)amino)-5-isopropoxy-2-methylphenyl)-[1,4′-bipiperidin]-1′-yl)ethyl)amino)-2-(2,6-dioxopiperidin-3-yl)isoindoline-1,3-dione] | 171 ± 26 nM | 8590 ± 1180 nM | 204 nM | 89% |
| Cc1cc(Nc2ncc(Cl)c(Nc3ccccc3S(=O)(=O)C(C)C)n2)c(OC(C)C)cc1C1CCN(C2CCN(CCCNc3ccc4c(c3)C(=O)N(C3CCC(=O)NC3=O)C4=O)CC2)CC1 (stereo not drawn) [8l, 5-((3-(4-(4-((5-Chloro-4-((2-(isopropylsulfonyl)phenyl)amino)pyrimidin-2-yl)amino)-5-isopropoxy-2-methylphenyl)-[1,4′-bipiperidin]-1′-yl)propyl)amino)-2-(2,6-dioxopiperidin-3-yl)isoindoline-1,3-dione] | 598 ± 147 nM | > 10000 nM | 452 nM | 54% |
| Cc1cc(Nc2ncc(Cl)c(Nc3ccccc3S(=O)(=O)C(C)C)n2)c(OC(C)C)cc1C1CCN(C2CCN(C3CN(c4ccc5c(c4)C(=O)N(C4CCC(=O)NC4=O)C5=O)C3)CC2)CC1 (stereo not drawn) [8m, 5-(3-(4-(4-((5-Chloro-4-((2-(isopropylsulfonyl)phenyl)amino)pyrimidin-2-yl)amino)-5-isopropoxy-2-methylphenyl)-[1,4′-bipiperidin]-1′-yl)azetidin-1-yl)-2-(2,6-dioxopiperidin-3-yl)isoindoline-1,3-dione] | 39 ± 34 nM | 2770 ± 1080 nM | 35 nM | 92% |
| Cc1cc(Nc2ncc(Cl)c(Nc3ccccc3S(=O)(=O)C(C)C)n2)c(OC(C)C)cc1C1CCN(C2CCN(CC3CN(c4ccc5c(c4)C(=O)N(C4CCC(=O)NC4=O)C5=O)C3)CC2)CC1 (stereo not drawn) [8n, 5-(3-((4-(4-((5-Chloro-4-((2-(isopropylsulfonyl)phenyl)amino)pyrimidin-2-yl)amino)-5-isopropoxy-2-methylphenyl)-[1,4′-bipiperidin]-1′-yl)methyl)azetidin-1-yl)-2-(2,6-dioxopiperidin-3-yl)isoindoline-1,3-dione] | 713 ± 84 nM | 1150 ± 466 nM | 586 nM | 63% |
| Cc1cc(Nc2ncc(Cl)c(Nc3ccccc3S(=O)(=O)C(C)C)n2)c(OC(C)C)cc1C1CCN(C2CN(C3CN(c4ccc5c(c4)C(=O)N(C4CCC(=O)NC4=O)C5=O)C3)C2)CC1 (stereo not drawn) [8o, 5-(3-(4-(4-((5-Chloro-4-((2-(isopropylsulfonyl)phenyl)amino)pyrimidin-2-yl)amino)-5-isopropoxy-2-methylphenyl)piperidin-1-yl)-[1,3′-biazetidin]-1′-yl)-2-(2,6-dioxopiperidin-3-yl)isoindoline-1,3-dione] | 116 ± 21 nM | > 10000 nM | 122 nM | 65% |

— paper PMC11513893, “Discovery of Oral Degraders of the ROS1 Fusion Protein with Potent Activity against Secondary Resistance Mutations” (Journal of Medicinal Chemistry, 2024)
